The test system of one assay is 5-Lipoxygenase. In words: Inhibition of calcium ionophore-induced LTB4 formation in human polymorphonuclear leukocytes (PMNL). Type of assay: cell-based. The settings on record: stimulated LTB4 formation in human PMNL; calcium ionophore 8.3 μM, 15 min preincubation. The procedure: Inhibition of leukotriene biosynthesis was evaluated in an assay involving calcium ionophore-induced LTB4 expressed in human polymorphornuclear leukocytes (PMNL). Human PMNL isolated from heparinized (20 USP units/mL) venous blood (25 mL) obtained from healthy volunteers was layered over an equal volume of Ficoll-Hypaque Mono-Poly Resolving Medium (ICN Flow, Costa Mesa, Calif.) and centrifugated at 400 x g for 40 min at 20° C. The PMNL was collected, erythrocytes lysed and washed 2x and suspended at 1.0×10^7 cells/mL in Earle's balanced salt solution with 17 mM Earle's HEPES. Aliquots of the cell suspension were preincubated with test compounds dissolved in DMSO (final concentration <2%) for 15 min. and stimulated with calcium ionophore (final concentration 8.3 μM) for 10 min. at 37° C. Incubations were stopped with the addition of two volumes of ice-cold methanol followed by centrifuging the cell suspensions at 4° C. for 10 min at 450 x g. The mount of LTB4 in the methanol extract was analyzed by enzyme-linked immunoassay or by HPLC analysis.

Another assay has as its system leukotriene biosynthesis. Put plainly: In vivo leukotriene inhibition in rat peritoneal anaphylaxis model. The settings on record: oral gavage 1 h before antigen challenge; for % Inhibition (dose): 30 μmol/kg. As for the experimental part: Inhibition of the biosynthesis of leuktrienes in vivo after oral administration of compound was determined using a rat peritoneal anaphylaxis model in a similar manner as that described by Young and coworkers (Young, P. R.; Dyer, R. D.; Carter, G. W. Fed. Proc., Fed. Am. Soc. Exp. Biol. 1985, 44, 1185). In this model rats were injected intraperitoneally (ip) with rabbit antibody to bovine serum albumin (BSA) and three hours later injected ip with BSA to induce an antgen-antibody response. Rats were sacrificed 15 minutes after this challenge and the peritoneal fluids were collected and analyzed for leukotriene levels. Test compounds were administered by gavage one hour prior to the antigen challenge. Percent inhibition values were determined by comparing the treatment group to the mean of the control group.

The test system of a further assay is leukotriene. Put plainly: In vivo leukotriene inhibition in rat pleural inflammation (A23187 ionophore-induced). The settings on record: dosed in 0.2% methocel 1 h before intrapleural A23187, male rats; for ED50: Rattus norvegicus. As for the experimental part: Pleural inflammation was induced in male rats following the method of Rao et al (Rao, T. S., Currie, J. L., Shaffer, A. F., Isakson, P. C., (1993) Evaluation of 5-lipoxygenase Inhibitors, Zileuton, A-78773 and ICI D-2138 in an Ionophore (A-23 187) Induced Pleural Inflammation Model in the Rat. Life Sciences, 53: 147). Rats were dosed with experimental compounds in 0.2% methocel one hour prior to the intrapleural injection of the calcium ionophore, A23 187. The rats where lightly anesthetized with Pentrane (Abbott Laboratories) and injected intrapleurally with 0.5 ml of 2% ethanol in injectable saline (Abbott Laboratories) containing 20 ug of A23187 (Cal BioChem-Novabiochem). Thirty minutes later the animals were euthanised and the pleural cavities lavaged with ice cold saline (Abbott Laboratories). The lavage fluid was then added to ice cold methanol (final methanol concentration 30%) to lyse cells and precipitate protein. Eicosanoids were determined by enzyme immunoassay by standard methods.

The structures appear in SMILES notation.

One may read the IC50 as the concentration at which inhibition is half-maximal. In the case of `C/C(=N\OC(c1ccc(OCc2ccc3ccccc3n2)cc1)c1cccs1)C(=O)O` (stereo not shown) [Example 43, 2-thienyl-(4-(2-quinolylmethoxy)phenyl)methyl!-E-2-iminoxy propionic acid], in the assay on 5-Lipoxygenase, the half-maximal inhibitory concentration (IC50) is under 100 nM.
For `COC(=O)/C(C)=N\OC(c1ccc(OCc2ccc3ccccc3n2)cc1)C1CCCCC1` (stereo not shown) [Example 30, Cyclohexyl-(4-(2-quinolylmethoxy)phenyl)methyl!-Z-2-iminoxypropionic acid methyl ester], the IC50 in the assay with 5-Lipoxygenase was 170 nM.
For the compound `O=C(O)C=NOC(c1ccc(OCc2ccc3ccccc3n2)cc1)C1CCCCC1` (stereo not shown) [Example 1, Cyclohexyl-(4-(2-quinolylmethoxy)phenyl)methyl!iminoxyacetic acid], the “% Inhibition (dose)” value in the assay on leukotriene biosynthesis came to 82%. Further, the concentration for half-maximal inhibition (IC50) in the assay on 5-Lipoxygenase was 21 nM.
Broadly, the ED50 is the midpoint of the dose-response relation. Lower therefore signals an effect at a small dose. Compound `CC(=NOC(c1ccc(OCc2ccc3ccccc3n2)cc1)C1CCCCC1)C(=O)O` (stereo not shown) [Example 2, Cyclohexyl-(4-(2-quinolylmethoxy)phenyl)methyl!-2-iminoxy propionic acid] returned a median effective dose (ED50) in the assay on leukotriene biosynthesis of 1.2 mg/kg. For the same compound, the half-maximal inhibitory concentration (IC50) in the assay on 5-Lipoxygenase turned out to be 4 nM. The “% Inhibition (dose)” value in the assay on leukotriene (30 μmol/kg) amounted to 89%.
Regarding `C/C(=N\O[C@H](c1ccc(OCc2ccc3ccccc3n2)cc1)C1CCCCC1)C(=O)O` [Example 37, (S)-Cyclohexyl-(4-(2-quinolylmethoxy)phenyl)methyl!-E-2-iminoxypropionic acid], in the assay on 5-Lipoxygenase, the 50% inhibitory concentration (IC50) was determined as 6 nM.
With `C/C(=N\OC(c1ccc(OCc2ccc3ccccc3n2)cc1Cl)C1CCCCC1)C(=O)O` (stereo not shown) [Example 44, Cyclohexyl-(2-chloro4-(2-quinolylmethoxy)phenyl)methyl!-E-2-iminoxypropionic acid], the IC50 in the assay with 5-Lipoxygenase is under 100 nM.
In the case of `CC(=NOC(c1ccc(OCc2ccc3ccccc3n2)cc1)C1CCCCCC1)C(=O)O` (stereo not shown) [Example 58, Cycloheptyl-(4-(2-quinolylmethoxy)phenyl)methyl!-2-iminoxy propionic acid], in the assay on 5-Lipoxygenase, the IC50 was under 100 nM.
Consider `O=C(O)C=NOCC(c1ccc(OCc2ccc3ccccc3n2)cc1)C1CCCCC1` (stereo not shown) [Example 26], for which the IC50 in the assay with 5-Lipoxygenase stood at 5 nM.
Same read-out and setting: the value for `CC(C)(C=NOCC(c1ccc(OCc2ccc3ccccc3n2)cc1)C1CCCCCC1)C(=O)O` (stereo not shown) [Example 28, 2-cycloheptyl-2-(4-(2-quinolylmethoxy)phenyl)eth-1-yl!-3-iminoxy-2,2-dimethylpropionic acid] was 5 nM.
Turning to `COC(=O)/C(C)=N/OC(c1ccc(OCc2ccc3ccccc3n2)cc1)C1CCCCC1` (stereo not shown) [Example 31, Cyclohexyl-(4-(2-quinolylmethoxy)phenyl)methyl!-E-2-iminoxypropionic acid methyl ester], in the assay on 5-Lipoxygenase, the half-inhibitory concentration (IC50) was 25 nM.
`C/C(=N\O[C@@H](c1ccc(OCc2ccc3ccccc3n2)cc1)C1CCCCC1)C(=O)O` [Example 35, (R)-Cyclohexyl-(4-(2-quinolylmethoxy)phenyl)methyl!-E-2-iminoxypropionic acid]: in the assay with 5-Lipoxygenase, the half-inhibitory concentration (IC50) was 70 nM.
Turning to `C/C(=N\OC(Cc1ccccc1)c1ccc(OCc2ccc3ccccc3n2)cc1)C(=O)O` (stereo not shown) [Example 42, 2-phenyl-1-(4-(2-quinolylmethoxy)phenyl)eth-1-yl!-E-2-iminoxy propionic acid], the IC50 in the assay with 5-Lipoxygenase was under 100 nM.
On to `C/C(=N\OC(c1ccc(OCc2ccc3ccccc3n2)c(Cl)c1)C1CCCCC1)C(=O)O` (stereo not shown) [Example 45, Cyclohexyl-(3-chloro-4-(2-quinolylmethoxy)phenyl)methyl!-E-2-iminoxypropionic acid], for which the IC50 with 5-Lipoxygenase is under 100 nM. The compound further showed an ED50 in the assay with leukotriene of 1.2 mg/kg.
Regarding `C/C(=N\OC(c1ccc(OCc2ccc3ccccc3n2)cc1)C1CCCCC1)C(=O)O` (stereo not shown) [Example 33, cyclohexyl-(4-(2-quinolylmethoxy)phenyl)methyl!-E-2-iminoxypropionic acid], the half-inhibitory concentration (IC50) in the assay on 5-Lipoxygenase was 15 nM.
For the compound `O=C(O)c1ccc(C=NOC(c2ccc(OCc3ccc4ccccc4n3)cc2)C2CCCCC2)cc1` (stereo not shown) [Example 6, O-Cyclohexyl-(4-(2-quinolylmethoxy)phenyl)methyl!-4-carboxybenzaldoxime], in the assay with 5-Lipoxygenase, the IC50 turned out to be 32 nM.
Take `CCCCC(O/N=C(\C)C(=O)O)c1ccc(OCc2ccc3ccccc3n2)cc1` (stereo not shown) [Example 50, 4-(2-quinolylmethoxy)phenylpent-1-yl!-E-2-iminoxypropionic acid]: the concentration for half-maximal inhibition (IC50) with 5-Lipoxygenase was under 100 nM.
Turning to `C/C(=N\OC(CC(C)(C)c1ccccc1)c1ccc(OCc2ccc3ccccc3n2)cc1)C(=O)O` (stereo not shown) [Example 48, 3-methyl-3-phenyl-1-(4-(2-quinolylmethoxy)phenyl)but-1-yl!-E-2-iminoxypropionic acid], in the assay on 5-Lipoxygenase, the 50% inhibitory concentration (IC50) is under 100 nM. In the assay on leukotriene, this compound came in with a 50% effective dose (ED50) of 2 mg/kg.
For `C/C(=N/OC(c1ccc(OCc2ccc3ccccc3n2)cc1)C1CCCCC1)C(=O)O` (stereo not shown) [Example 32, cyclohexyl-(4-(2-quinolylmethoxy)phenyl)methyl!-Z-2-iminoxypropionic acid], in the assay with 5-Lipoxygenase, the half-maximal inhibitory concentration (IC50) is 170 nM.
`O=C(O)C=NOCC(c1ccc(OCc2ccc3ccccc3n2)cc1)C1CCCCCC1` (stereo not shown) [Example 27, 2-Cycloheptyl-2-(4-(2-quinolylmethoxy)phenyl)eth-1-yl!iminoxyacetic acid] had a 50% effective dose (ED50) in the assay on leukotriene biosynthesis of 0.7 mg/kg. Moreover, the IC50 with 5-Lipoxygenase amounted to 8 nM.
Turning to `CC(C)(CC(O/N=C/C(=O)O)c1ccc(OCc2ccc3ccccc3n2)cc1)c1ccccc1` (stereo not shown) [Example 49, 3-methyl-3-phenyl-1-(4-(2-quinolylmethoxy)phenyl)but-1-yl!-E-2-iminoxyacetic acid], in the assay on 5-Lipoxygenase, the IC50 was under 100 nM.
Consider `O=C(O)c1ccc(C=NOC(CC2CCCCC2)c2ccc(OCc3cscn3)cc2)cc1` (stereo not shown) [Example 19, O-2-cyclohexyl-1-(4-(4-thiazolylmethoxy)phenyl)eth-1-yl!-4-carboxybenzaldoxime], for which the “% Inhibition (dose)” value in the assay with leukotriene biosynthesis was 81%.
As for `CC(=NOCc1ccc(OCc2ccc3ccccc3n2)cc1Cl)C(=O)O` [Example 57, 2-chloro-(4-(2-quinolylmethoxy)phenyl)methyl!-2-iminoxy propionic acid], the IC50 in the assay on 5-Lipoxygenase is under 100 nM.
On the same count and under the same terms, the value for `COC(=O)/C(C)=N/O[C@H](c1ccc(OCc2ccc3ccccc3n2)cc1)C1CCCCC1` [Example 36, (S)-Cyclohexyl-(4-(2-quinolylmethoxy)phenyl)methyl!-E-2-iminoxypropionic acid methyl ester] was 50 nM.
Regarding `CC(=NOC(CC1CCCCC1)c1ccc(OCc2ccc3ccccc3n2)cc1)C(=O)O` (stereo not shown) [Example 15, 2-Cyclohexyl-1-(4-(2-quinolylmethoxy)phenyl)eth-1-yl!-2-iminoxypropionic acid], the concentration for half-maximal inhibition (IC50) with 5-Lipoxygenase is 6 nM.
Still for that read-out and setting: with `O=C(O)c1ccc(C=NOC(CC2CCCCC2)c2ccc(OCc3ccc4ccccc4n3)cc2)cc1` (stereo not shown) [Example 14, O-2-Cyclohexyl-1-(4-(2-quinolylmethoxy)phenyl)eth-1-yl!-4-carboxybenzaldoxime] the figure was 4 nM.
As to `CC(=NOCC(c1ccc(OCc2ccc3ccccc3n2)cc1)C1CCCCC1)C(=O)O` (stereo not shown) [Example 55, Cyclohexyl-1-(4-(2-quinolylmethoxy)phenyl)eth-2-yl!-2-iminoxy propionic acid], in the assay with 5-Lipoxygenase, the IC50 is 30 nM.
Still for that read-out and setting: the value for `O=C(O)C=NOC(CCCc1ccc(Cl)cc1)c1ccc(OCc2ccc3ccccc3n2)cc1` (stereo not shown) [Example 12, 4-(4-Chlorophenyl)-1-(4-(2-quinolylmethoxy)phenyl) butyl!iminoxyacetic acid] was 55 nM.
For `CCCCC(O/N=C/C(=O)O)c1ccc(OCc2ccc3ccccc3n2)cc1` (stereo not shown) [Example 51], the IC50 in the assay on 5-Lipoxygenase is under 100 nM.
Regarding `COC(=O)/C(C)=N/O[C@@H](c1ccc(OCc2ccc3ccccc3n2)cc1)C1CCCCC1` [Example 34], the concentration for half-maximal inhibition (IC50) in the assay on 5-Lipoxygenase was 470 nM.
Consider `O=C(O)/C=N/OC(c1ccc(OCc2ccc3ccccc3n2)cc1)C1CCCCC1` (stereo not shown) [Example 40, Cyclohexyl-(4-(2-quinolylmethoxy)phenyl)methyl!-E-iminoxyacetic acid], for which the IC50 in the assay on 5-Lipoxygenase was 17 nM.
Consider `C/C(=N\OC[C@@H](c1ccc(OCc2ccc3ccccc3n2)cc1)C1CCCC1)C(=O)O` [Example 62], for which, in the assay with 5-Lipoxygenase, the half-inhibitory concentration (IC50) was 36 nM.

These data come from US5512581A, “Iminoxycarboxylates and derivatives as inhibitors of leukotriene biosynthesis” (Abbott Laboratories, priority 1995, dated 1996).
